Assay results taken from patent US7638283B2, “Amyloid β protein (globular assembly and uses thereof)” (Northwestern University, priority 1997, dated 2009).

Key:
[1] = system: brain slice cultures lacking a functional fyn gene; assay: Brain slice cultures from mice that lack a functional fyn gene; format: cell-based, mouse; settings: compared to vehicle controls
Procedure: (§1) An adult mouse is sacrificed by carbon dioxide inhalation, followed by rapid decapitation. The head is emersed in cold, sterile dissection buffer (94 ml Gey's balanced salt solution, pH 7.2, supplemented with 2 mL 0.5M MgCl2, 2 ml 25% glucose, and 2 mL 1.0 M Hepes.), after which the brain is removed and placed on a sterile Sylgard-coated plate. The cerebellum is removed and a mid-line cut is made to separate the cerebral hemispheres. Each hemisphere is sliced separately. The hemisphere is placed with the mid-line cut down and a 30 degree slice from the dorsal side is made to orient the hemisphere. The hemisphere is glued cut side down on the plastic stage of a Campden tissue chopper (previously wiped with ethanol) and emersed in ice cold sterile buffer. Slices of 200 μm thickness are made from a lateral to medial direction, collecting those in which the hippocampus is visible. […] Cell death is measured using the LIVE/DEAD® assay kit (Molecular Probes, Eugene, Oreg.). This a dual-label fluorescence assay in which live cells are detected by the presence of an esterase that cleaves calcein-AM to calcein, resulting in a green fluorescence. Dead cells take up ethidium homodimer, which intercalates with DNA and has a red fluorescence. […] The MetaMorph image analysis system is used to quantify the number and/or area of cells showing green or red fluorescence. […]

primary astrocytes = assay: Activation of primary astrocyte cultures; format: cell-based
serum starved B103 cells = assay: Cell morphology by phase microscopy; format: cell-based, rat
Procedure: Cultures are grown to low density (50-60% confluence). To initiate the experiment, the cells are serum starved in F12 media for 1 hour. Cells are then incubated for 3 hours with amyloid β oligomers prepared as described in Example 1, with and without inhibitor compounds added to the cells for […]. After 3 hours, cells are examined for morphological differences or fixed for immunofluorescence labeling. Samples are examined using the MetaMorph Image Analysis system and an MRI video camera (Universal Imaging, Inc.).

B103 cells = assay: FACScan assay for binding to intact cells; parameters: species or system rat
Procedure: For flow cytometry, cells are dissociated with 0.1% trypsin and plated at least overnight onto tissue culture plastic at low density. Cells are removed with cold PBS/0.5 mM EDTA, washed three times and resuspended in ice-cold PBS to a final concentration of 500,000 cells/mL. Cells are incubated in cold PBS with amyloid β oligomers prepared as described in Example 1, except that 10% of the amyloid β is an amyloid β 1-42 analog containing biocytin at position 1 replacing aspartate. Oligomers with and without inhibitor compounds present are added to the cells for 24 hours. The cells are washed twice in cold PBS to remove free, unbound amyloid β oligomers and resuspended in a 1:1,000 dilution of avidin conjugated to fluorescein and incubated for one hour at 4° C. with gentle agitation. Cells are analyzed by a Becton-Dickinson Fluorescence Activated Cell Scanner (FACScan). 10,000 or 20,000 events are collected for both forward scatter (size) and fluorescence intensity, and the data are analyzed by Consort 30 software (Becton-Dickinson). An alternative procedure uses amyloid β-specific antibodies and fluorescent secondary antibody instead of avidin, eliminating the need to incorporate 10% of the biotynylated amyloid β analog. FIG. 2 illustrates the ADDL-cell binding FACS analysis, and FIG. 3 illustrates the utility of the FACS assay for identification of ADDL-blocking compounds.

[2] = system: hippocampal brain slice cultures; assay: Brain slice assay (LIVE/DEAD cell death); format: cell-based, mouse
Procedure: as §1

[3] = system: hippocampus, synaptic activity (LTP); assay: LTP assay in injected animals; format: in vivo, mouse
Description: Injections of intact animals: Mice are anesthesized with urethane and placed in a sterotaxic apparatus. Body temperature is maintained using a heated water jacket pad. The brain surface is exposed through holes in the skull. Bregma and lambda positions for injection into the middle molecular layer of hippocampus are 2 mm posterior to bregma, 1 mm lateral to the midline, and 1.2-1.5 mm ventral to the brain surface. Amyloid β oligomer injections are by nitrogen puff through ˜[…] diameter glass pipettes. Volumes of 20-50 nL of amyloid β oligomer solution (180 nM of amyloid β) are given over the course of an hour. The animal is allowed to rest for varying time periods before the LTP stimulus is given.
LTP in injected animals: Experiments follow the paradigm established Routtenberg and colleagues for LTP in mice (Namgung, et al., 1995). Perforant path stimulation from the entorhinal cortex is used, with recording from the middle molecular layer and the cell body of the dentate gyrus. […] Some sections are placed on slides subbed with gelatin and others are analyzed using a free-floating protocol. […]
Wave forms are analyzed by machine as described previously (Colley, 1990, J. Neurosci.). […]

fyn kinase = fyn kinase activity in B103 cells; format: cell-based, rat
neuronal cell cultures = assay: Neurotoxicity in neuronal cell cultures; format: cell-based
Procedure: PC12 cells are passaged at 4×10^4 cell/well on a 96-well culture plate and grown for 24 hours in DMEM+10% fetal calf serum+1% S/P/F (streptomycin, penicillin, and fungizone). Plates are treated with 200 μg/mL poly-1-lysine for 2 hours prior to cell plating to enhance cell adhesion. One set of six wells is left untreated and fed with fresh media, while another set of wells is treated with the vehicle control (PBS containing 10% 0.01 N HCl, aged o/n at RT). Positive controls are treated with triton (1%) and Na Azide (0.1%) in normal growth media. Amyloid β oligomers prepared as described in Example 1, with and without inhibitor compounds present are added to the cells for 24 hours. After the 24 hour incubation, MTT (0.5 mg/mL) is added to the cells for 2.5 hours (11 μL of 5 mg/ml stock solubilized in PBS into 100 μL of media). Healthy cells reduce the MTT into a formazan blue colored product. After the incubation with MTT, the media is aspirated and 100 μL of 100% DMSO is added to lyse the cells and dissolve the blue crystals. The plate was incubated for 15 min at RT and read on a plate reader (ELISA) at 550 nm.
HN2 cells are passaged at 4×10^4 cells/well on a 96-well culture plate and grown for 24 hours in DMEM+10% fetal calf serum+1% S/P/F (streptomycin, penicillin, and fungizone). […] The plate is incubated for 15 min at RT and read on a plate reader (ELISA) at 550 nm.

[4] = Neurotoxicity of amyloid β fractions and samples (test system not specified); format: cell-based; settings: supernatant compared with unfractionated amyloid β aggregated under literature conditions
hippocampal neurons = assay: Neuronal viability in injected animals (brain slices after the LTP experiment); format: in vivo, mouse; settings: 20 nL injected into hippocampal region
Procedure: After the LTP experiment is performed, animals are allowed to remover for various times and then sacrificed using sodium pentobarbitol asesthetic and perfusion with 4% paraformaldehye. For viability studies, times of 3 hours, 24 hours, 3 days, and 7 days are used. The brain is cryoprotected with 30% sucrose and then sectioned ([…]) with a microtome. Sections are placed on slides subbed with gelatin and stained initially with cresyl violet. Cell loss is measured by counting cell bodies in the dentate gyrus, CA3, CA1, and entorhinal cortex and is correlated with dose and time of exposure of ADDLs.

Substance	neurotoxicity in brain slice cultures from mice lacking a functional fyn gene [1]	activation of astrocytes (primary astrocytes)	mRNA for IL-1, inducible nitric oxide synthase, apo E, Apo J and α1-antichymotrypsin in astrocytes (primary astrocytes)	morphology of serum starved B103 cells (serum starved B103 cells)	receptor binding of ADDLs to B103 cells (B103 cells; 10% biotinylated amyloid β 1-42, fluorescent avidin conjugate, FACS)	neurotoxicity in brain slice cultures ([2]; supernatant of amyloid β 1-42 incubated in F12 at 4° C., Live/Dead fluorescence assay)	LTP consolidation phase, synaptic activity as cell body spike amplitude ([3]; 20 nL injected into hippocampal region 60-70 minutes prior to LTP, over the subsequent 2 hours, compared with control animals)	LTP stimulation phase ([3]; 20 nL injected into hippocampal region of adult mouse 60-70 minutes prior to LTP)	fyn kinase activity in B103 cells (fyn kinase)	neurotoxicity in neuronal cell cultures (neuronal cell cultures)	neurotoxicity of amyloid β fractions/samples [4]	cell death in brain slices after the LTP experiment (hippocampal neurons)	blocking of ADDL binding in the receptor assay (B103 cells; at 10 μM)	blocking of the neurotoxic effects of ADDLs in the hippocampal brain slice assay ([2]; at 10 μM)
ADDLs: amyloid β peptide assembled into non-fibrillar oligomeric structures; soluble globular assemblies of amyloid β 1-42	no increased neurotoxicity	become activated	become elevated	rapid morphological change	saturable	highly neurotoxic	significant, continuing decline in synaptic activity	identical with saline control injections	activate fyn kinase activity	highly neurotoxic	significantly higher neurotoxicity	no cell death had occurred	–	–
amyloid β 1-40 [reference compound]	–	–	–	–	–	–	–	–	–	–	–	–	capable of blocking ADDL binding	capable of blocking the neurotoxic effects of ADDLs
